Laboratory results: US20220056419A1, “IN VITRO MODEL OF LIVER STEATOSIS AND FIBROSING NON-ALCOHOLIC STEATOHEPATITIS” (GENFIT, priority 2018, published 2022)
Entries after “also recorded” stand apart in the source; their conditions may differ.

Experiments:
3D Huh7 spheroids = assay: Steatosis model: AdipoRed lipid quantification in 3D Huh7 spheroids induced with first culture medium; format: cell-based, human; conditions: 3D liver microtissue steatosis model, 6 days of treatment with test compound
Experimental: The Huh 7 human hepatocellular carcinoma cell line was seeded in William's E medium (Gibco) with 10% FBS (Gibco) at a density of 3000 cells/well in 384 well plate ULA (Corning). After a few days, spheroids are formed and cells are grown in serum-free culture medium.
William's E medium was supplemented with FFAs (oleate+palmitate, 400 μM total FFA concentration) fructose 15 mM (Sigma) and soluble cholesterol […] (Sigma). Huh7 spheroids were treated for 3 days with this medium with or without a test compound and the treatment was renewed once with or without a test compound.
Steatosis was then measured after 6 days of treatment with or without the test compound.
Lipid Staining and Quantification Intracellular lipid accumulation was quantified using the AdipoRed™ Adipogenesis Assay Reagent (Lonza). Cells were visualized under epifluorescence microscope and then subjected to fluorescence assay quantification at λexc: 485 nm and λem: 572 nm, using plate reader (TECAN).

[1] = system: 3D human liver microtissues; assay: Fibrosing NASH model: COL1A1 (pro-collagen I) ELISA in medium 1+medium 2-treated 3D human liver microtissues; format: cell-based; conditions: single agent, medium 1+medium 2-treated 3D liver microtissues, FIG. 9A
Source text: Cryopreserved primary human hepatocytes (IPHH_11) and cryopreserved primary human non parenchymal cells (NPCs containing endothelial and Kupffer cells) (IPHN_11) were obtained from BioIVT. The cryopreserved human primary hepatic stellate cells (hHSC) were obtained from Innoprot. 3D human liver microtissues were produced with the IPHH_11, the IPHN_11 and the hHSC in a 96-well hanging-drop culture platform (Gravity PLUS™, InSphero AG). After microtissues formation, they were transferred into a microtissue-specific 96-well culture and assay platform (Gravity TRAP™, InSphero AG). Further maintenance and compound treatments were performed in Gravity TRAP™ plates. After tissue formation, the 3D microtissues were maintained in William's E medium (Gibco) supplemented with Insulin (Sigma), Transferrin (Sigma), Selenium (Sigma), Glutamine (Gibco), Dexamethasone (Sigma), HEPES (Sigma), Gentamicin (Gibco) and Amphotericin B (Sigma) at 37° C. in a humidified 5% CO2 cell culture incubator for 4 days. Half of the culture medium was replenished every 3 days.
Hepatic microtissues were treated once with a couple of carbohydrates (final concentration ranging from 1 to 100 mM), a couple of free fatty acids either saturated or unsaturated with a final concentration ranging from 100μM to 1 mM and a source of cholesterol with a concentration ranging from 1 μg/mL to 1 mg/mL (medium 1). After 2 to 5 days, microtissues were treated with a couple of carbohydrates (final concentration ranging from 1 to 100 mM), a couple of free fatty acids either saturated or unsaturated with a final concentration ranging from 100 μM to 1 mM and a source of cholesterol with a concentration ranging from 1 μg/mL to 250 μg/mL, a member of the growth factor superfamily member, a member of the TNFSF with a concentration ranging from 1 ng/mL to 1 μg/mL and a sphingolipid with a concentration ranging from 1 nM to 500 nM (medium 2). This treatment lasts from 2 to 5 days.
The level of Collal, IL-8 and MCP-1 was measured using a Sandwich ELISA, according to manufacturer's instructions provided with “Elisa Pro-Collagen I α1/COLIA1”, (DuoSet ELISA, R&D, catalog N°: DY6220-05), Elisa CXCL8/IL-8 (DuoSet ELISA, R&D, catalog N°: DY208n) and Elisa CCL2/MCP-1 (DuoSet ELISA, R&D, catalog N°: DY279) kits, respectively.
For these experiments, a checkerboard matrix was generated. ELA and component (ii) stocks were serially diluted in DMSO in 2-points series in a row (ELA) and a 3-points series in a column (component (ii)) of a 96-well plate. Subsequently, the 2×3 combination matrix was generated by 1:1 mixing of all single agent concentrations.

Compound: O=C(c1c2ccccc2cc2ccccc12)N1CCC(N2CCC[C@@H](C(=O)N3CCOCC3)C2)CC1 [CP-640186]
- antisteatotic activity (lipid content, AdipoRed signal) (3D Huh7 spheroids): antisteatotic activity
- inhibition of COL1A1 secretion (collagen release) ([1]; high dose 3 μM): the release of collagen was affected; also recorded: inhibition of COL1A1 secretion

Compound: CSc1ccc(C(=O)/C=C/c2cc(C)c(OC(C)(C)C(=O)O)c(C)c2)cc1 [Elafibranor]
- inhibition of COL1A1 secretion (collagen release) ([1]; high dose 3 μM): inhibition of COL1A1 secretion
- inhibition of COL1A1 secretion (collagen release) ([1]; high dose 3 μM, listed as ELA): the release of collagen was affected

Compound: COc1cc(C(=O)N2CCC3(CC2)CC(=O)c2cc(-c4cncc(C(=O)O)c4)ccc2O3)cc2c1c(C)cn2C1CC1 [MK-4074]
- antisteatotic activity (lipid content, AdipoRed signal) (3D Huh7 spheroids): antisteatotic activity

Compound: COc1ccccc1[C@H](Cn1c(=O)n(C(C)(C)C(=O)O)c(=O)c2c(C)c(-c3ncco3)sc21)OC1CCOCC1 [GS-0976]
- antisteatotic activity (lipid content, AdipoRed signal) (3D Huh7 spheroids): antisteatotic activity
- inhibition of COL1A1 secretion (collagen release) ([1]; high dose 1 μM): the release of collagen was affected; also recorded: inhibition of COL1A1 secretion
